The text below walks through data of US12133841B2, “Heterocyclic compounds as kinase inhibitors, compositions comprising the heterocyclic compound, and methods of use thereof” (JS INNOMED HOLDINGS LTD., priority 2018, dated 2024).

A value given as a limit tells only on which side of the number the result lay.

One test has as its target T1, human ERK2 (Homo sapiens, UniProt P28482).
T1 construct: recombinantly expressed as GST-tagged full-length protein purified from E. coli; GST; purchased Invitrogen PV3311; host or cells: E. coli
The test is described as follows: LanthaScreen TR-FRET ERK2 enzymatic assay. Particulars: 5 μM ATP, one hour reaction; read-out: ERK2 Biochemical Activity (IC50 of ERK2 inhibition). As for the experimental part:
Compounds were tested in a LanthaScreen™ time-resolved fluorescence energy transfer (TR-FRET) enzymatic assay from Invitrogen. The assay used human ERK2 (Mitogen Activated Kinase 1, Invitrogen, Cat. PV3311) recombinantly expressed as GST-tagged full-length protein purified from E. coli and activated in vitro with MAP2K1. The substrate was a recombinant truncated version (residues 19-96) of ATF2 fused with Green Fluorescent Protein (Invitrogen, Cat. PV4445). Test compounds were prepared and diluted in DMSO in 3-fold serial dilutions to 100× of the final testing concentrations. The compounds were then further diluted to 4× by the kinase reaction buffer (Invitrogen, Cat. PV3189). The enzymatic reaction for compound testing was performed in a white 384-well polypropylene plate (Packard, Cat. 6005214) with a total reaction volume of 10 μl containing 20 ng/ml ERK2, 400 nM substrate, and 5 μM ATP that is around its Km. The assay started with loading 2.5 μl of ERK2 diluted in kinase reaction buffer to wells, followed by addition of equal volume of 4× compounds for 15-min incubation at the room temperature for pre-treatment. The enzymatic reaction was initiated by addition of 5 μl of mixture of the substrate and ATP prepared in kinase reaction buffer. After one hour reaction, 10 μl mixture of EDTA (final 10 mM) and terbium-labeled anti-pATF2 (pThr71) antibody (final 2 nM) (Invitrogen, Cat. PV4451) prepared in TR-FRET antibody dilution buffer (Invitrogen, Cat. PV3574) was added to stop the enzymatic reaction and produce TR-FRET signals. After 30 minutes of incubation at room temperature, the plate was read in Tecan Infinite F200 Pro with the following settings: Excitation 340 nm (30)/Emission1 495 nm (10)/Emission2 520 nm (25). The TR-FRET values were dimensionless numbers that were calculated as the ratio of the acceptor ([…]) signal to the donor (Terbium) signal. Percent of control was calculated as the percentage of compound-treated vs 1% DMSO vehicle-treated. The dose-response curves were generated and the IC50s were calculated by nonlinear sigmoid curve fitting using GraphPad Prism.
The IC50 values of ERK2 inhibition for compounds disclosed are listed in Table 3, A: ≤10 nM; B: >10 nM and ≤100 nM; C: >100 nM and ≤1 uM; D: >1 μM.
In general terms: Time-resolved FRET reads energy transfer from a long-lived donor to a nearby acceptor.

In another test the test system is Colo205 cell line. The test is described as follows: Colo205 cell proliferation assay (MTT assay, WST-8). The format is cell-based. As to conditions: Homo sapiens, COLO 205; 72 hours incubation; read-out: Colo 205 Cell Activity (IC50 of growth inhibition in Colo 205 cells). As for the experimental part:
Compounds disclosed herein were tested for the inhibition of ERK2 by a Colo205 cell proliferation assay commonly known as MTT assay. In this assay, a complete media was prepared by adding 10% fetal bovine serum to RPMI-1640 medium (Life technology). Colon cancer cells (Colo205 cell line) were added to each of 88 wells of a 96 well plate at a seeding density of 5,000 cells/well/90 μL. The cells were allowed to attach to the plate by incubating at 37° C. for 24 hours. The compound was dissolved in DMSO (SIGMA). A solution of test compound was prepared in complete media by serial dilution to obtain the following concentrations: 500 μM, 150 μM, 50 μM, 15 μM, 5 μM, 1.5 μM, 0.5 μM, 0.15 μM and 0.05 μM. The test compound solution (10 μL) was added to each of 80 cell-containing wells. The final concentrations of the compound were following: 50 μM, 15 μM, 5 μM, 1.5 μM, 0.5 μM, 0.15 μM, 0.05 μM, 0.015 μM and 0.005 μM. The final concentration of DMSO is 0.5%. To the 8 remaining cell-containing wells, only complete media (containing 0.5% DMSO) was added to form a control group in order to measure maximal proliferation. To the remaining 8 empty wells, complete media was added to for a vehicle control group in order to measure background. The plates were incubated at 37° C. for 72 hours. 10 μL WST-8 solution (DOJINDO, Cell Counting KIT-8) was added to each well. The plates were further incubated at 37° C. for 2 hours, and then read for the absorbance using a microplate reader at 450 nm.
The IC50 values of growth inhibition in Colo 205 cells for compounds disclosed are listed in Table 3, A′: ≤0.5 μM; B′: >0.5 μM and ≤1 μM; C′: >1.0 μM and ≤5 uM; D′: >5 μM.
On the technique in general: Formazan colour is commonly taken as a measure of viable cells.

T1 sequence (P28482 whole entry): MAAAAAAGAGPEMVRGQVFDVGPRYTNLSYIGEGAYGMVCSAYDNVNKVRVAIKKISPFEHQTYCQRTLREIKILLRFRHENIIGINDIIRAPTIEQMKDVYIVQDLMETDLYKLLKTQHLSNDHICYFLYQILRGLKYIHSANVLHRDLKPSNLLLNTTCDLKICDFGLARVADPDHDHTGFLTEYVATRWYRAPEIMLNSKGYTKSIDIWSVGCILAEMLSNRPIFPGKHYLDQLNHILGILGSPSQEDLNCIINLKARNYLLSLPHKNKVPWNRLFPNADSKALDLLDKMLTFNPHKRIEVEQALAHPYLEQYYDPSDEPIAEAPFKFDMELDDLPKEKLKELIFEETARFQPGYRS

For `CC(c1ccnc(C(F)(F)F)c1)N1C(=O)c2cc(-c3ccnc(Nc4ccnn4C)n3)sc2C1(C)C` (racemic) [Example 9, 6,6-dimethyl-2-(2-(1-methyl-1H-pyrazol-5-ylamino)pyrimidin-4-yl)-5-(1-(2-(trifluoromethyl)pyridin-4-yl)ethyl)-5,6-dihydro-4H-thieno[2,3-c]pyrrol-4-one], the IC50 on human ERK2 is ≤ 10 nM; in the test with Colo205 cell line it was ≤ 500 nM. The corresponding values for `CC(c1nc(C(F)(F)F)cs1)N1C(=O)c2cc(-c3ccnc(Nc4ccnn4C)n3)sc2C1(C)C` (racemic) [Example 10, 6,6-dimethyl-2-(2-(1-methyl-1H-pyrazol-5-ylamino)pyrimidin-4-yl)-5-(1-(4-(trifluoromethyl)thiazol-2-yl)ethyl)-5,6-dihydro-4H-thieno[2,3-c]pyrrol-4-one] are ≤ 10 nM and ≤ 500 nM.

For `Cn1nccc1Nc1nccc(-c2cc3c(s2)C(C)(C)N(Cc2ccnc(C(F)(F)F)c2)C3=O)n1` [Example 1, 6,6-dimethyl-2-(2-(1-methyl-1H-pyrazol-5-ylamino)pyrimidin-4-yl)-5-((2-(trifluoromethyl)pyridin-4-yl)methyl)-5,6-dihydro-4H-thieno[2,3-c]pyrrol-4-one], the values for the IC50 at human ERK2 and with Colo205 cell line were ≤ 10 nM and ≤ 500 nM, respectively.

For the compound `Cn1nccc1Nc1nccc(-c2cc3c(s2)C(C)(C)N(Cc2cccc(Cl)c2)C3=O)n1` [Example 2, 5-(3-chlorobenzyl)-6,6-dimethyl-2-(2-(1-methyl-1H-pyrazol-5-ylamino)pyrimidin-4-yl)-5,6-dihydro-4H-thieno[2,3-c]pyrrol-4-one], the half-inhibitory concentration (IC50) on human ERK2 was ≤ 10 nM; in the test with Colo205 cell line, ≤ 500 nM. For `Cn1nccc1Nc1nccc(-c2cc3c(s2)C(C)(C)N(Cc2cccc(C(F)(F)F)n2)C3=O)n1` [Example 3, 6,6-dimethyl-2-(2-((1-methyl-1H-pyrazol-5-yl)amino)pyrimidin-4-yl)-5-((6-(trifluoromethyl)pyridin-2-yl)methyl)-5,6-dihydro-4H-thieno[2,3-c]pyrrol-4-one], the results for the IC50 on human ERK2 and in the test on Colo205 cell line were ≤ 10 nM and ≤ 500 nM, respectively.

With `Cn1nccc1Nc1nccc(-c2cc3c(s2)C(C)(C)N(Cc2ccc(C(F)(F)F)nc2)C3=O)n1` [Example 4, 6,6-dimethyl-2-(2-((1-methyl-1H-pyrazol-5-yl)amino)pyrimidin-4-yl)-5-((6-(trifluoromethyl)pyridin-3-yl)methyl)-5,6-dihydro-4H-thieno[2,3-c]pyrrol-4-one], the half-maximal inhibitory concentration (IC50) at human ERK2 is ≤ 10 nM; in the test with Colo205 cell line it was 500 to 1000 nM. For the compound `Cn1nccc1Nc1nccc(-c2cc3c(s2)C(C)(C)N(Cc2nc(C(F)(F)F)cs2)C3=O)n1` [Example 5, 6,6-dimethyl-2-(2-((1-methyl-1H-pyrazol-5-yl)amino)pyrimidin-4-yl)-5-((4-(trifluoromethyl)thiazol-2-yl)methyl)-5,6-dihydro-4H-thieno[2,3-c]pyrrol-4-one], the IC50 is ≤ 10 nM on human ERK2 and ≤ 500 nM in the test on Colo205 cell line. The corresponding values for `Cn1nccc1Nc1nccc(-c2cc3c(s2)C(C)(C)N(Cc2ccnc(C(F)(F)F)n2)C3=O)n1` [Example 6, 6,6-dimethyl-2-(2-((1-methyl-1H-pyrazol-5-yl)amino)pyrimidin-4-yl)-5-((2-(trifluoromethyl)pyrimidin-4-yl)methyl)-5,6-dihydro-4H-thieno[2,3-c]pyrrol-4-one] are ≤ 10 nM and ≤ 500 nM. The corresponding values for `Cn1nccc1Nc1nccc(-c2cc3c(s2)C(C)(C)N(Cc2cc(C(F)(F)F)no2)C3=O)n1` [Example 7, 6,6-dimethyl-2-(2-((1-methyl-1H-pyrazol-5-yl)amino)pyrimidin-4-yl)-5-((3-(trifluoromethyl)isoxazol-5-yl)methyl)-5,6-dihydro-4H-thieno[2,3-c]pyrrol-4-one] are ≤ 10 nM and ≤ 500 nM. Regarding `Cn1nccc1Nc1nccc(-c2cc3c(s2)C(C)(C)N(CCc2ccnc(C(F)(F)F)c2)C3=O)n1` [Example 8, 6,6-dimethyl-2-(2-((1-methyl-1H-pyrazol-5-yl)amino)pyrimidin-4-yl)-5-(2-(2-(trifluoromethyl)pyridin-4-yl)ethyl)-5,6-dihydro-4H-thieno[2,3-c]pyrrol-4-one], the IC50 in the test with Colo205 cell line was 1000 to 5000 nM.

As to `Cn1nccc1Nc1nccc(-c2cc3c(s2)C(C)(C)N([C@H](CO)c2cccc(Cl)c2)C3=O)n1` [Example 11, (S)-5-(1-(3-chlorophenyl)-2-hydroxyethyl)-6,6-dimethyl-2-(2-((1-methyl-1H-pyrazol-5-yl)amino)pyrimidin-4-yl)-5,6-dihydro-4H-thieno[2,3-c]pyrrol-4-one], the IC50 in the test with Colo205 cell line was ≤ 500 nM. Turning to `CC(c1cccc(C(F)(F)F)n1)N1C(=O)c2cc(-c3ccnc(Nc4ccnn4C)n3)sc2C1(C)C` (stereo not shown) [Example 12, 6,6-dimethyl-2-(2-((1-methyl-1H-pyrazol-5-yl)amino)pyrimidin-4-yl)-5-(1-(6-(trifluoromethyl)pyridin-2-yl)ethyl)-5,6-dihydro-4H-thieno[2,3-c]pyrrol-4-one], in the test on Colo205 cell line, the IC50 was 1000 to 5000 nM. `CC(c1ccnc(C(F)(F)F)n1)N1C(=O)c2cc(-c3ccnc(Nc4ccnn4C)n3)sc2C1(C)C` (stereo not shown) [Example 13, 6,6-dimethyl-2-(2-((1-methyl-1H-pyrazol-5-yl)amino)pyrimidin-4-yl)-5-(1-(2-(trifluoromethyl)pyrimidin-4-yl)ethyl)-5,6-dihydro-4H-thieno[2,3-c]pyrrol-4-one]: the IC50 was 10 to 100 nM on human ERK2 and ≤ 500 nM in the test with Colo205 cell line. As to `Cn1nccc1Nc1nccc(-c2cc3c(s2)C(C)(C)N(CC(=O)N[C@H](CO)c2cccc(Cl)c2)C3=O)n1` [Example 14, (S)—N-(1-(3-chlorophenyl)-2-hydroxyethyl)-2-(6,6-dimethyl-2-(2-((1-methyl-1H-pyrazol-5-yl)amino)pyrimidin-4-yl)-4-oxo-4H-thieno[2,3-c]pyrrol-5(6H)-yl)acetamide], the IC50 on human ERK2 is ≤ 10 nM; in the test on Colo205 cell line it was ≤ 500 nM.

`CC(C(=O)N[C@H](CO)c1cccc(Cl)c1)N1C(=O)c2cc(-c3ccnc(Nc4ccnn4C)n3)sc2C1(C)C` (stereo partly drawn) [Example 15, N—((S)-1-(3-chlorophenyl)-2-hydroxyethyl)-2-(6,6-dimethyl-2-(2-((1-methyl-1H-pyrazol-5-yl)amino)pyrimidin-4-yl)-4-oxo-4H-thieno[2,3-c]pyrrol-5(6H)-yl)propanamide]: in the test with Colo205 cell line, the half-inhibitory concentration (IC50) is 500 to 1000 nM.

As for `Cn1nccc1Nc1nccc(-c2cc3c(s2)C(C)(C)N(CC(=O)NCc2ccnc(C(F)(F)F)c2)C3=O)n1` [Example 16, 2-(6,6-dimethyl-2-(2-((1-methyl-1H-pyrazol-5-yl)amino)pyrimidin-4-yl)-4-oxo-4H-thieno[2,3-c]pyrrol-5(6H)-yl)-N-((2-(trifluoromethyl)pyridin-4-yl)methyl)acetamide], the IC50 with Colo205 cell line lay in the range of 1000 to 5000 nM. The same measure, in the same setting: in the case of `Cn1nccc1Nc1nccc(-c2cc3c(s2)C(C)(C)N(CCN[C@H](CO)c2cccc(Cl)c2)C3=O)n1` [Example 17, (S)-5-(2-((1-(3-chlorophenyl)-2-hydroxyethyl)amino)ethyl)-6,6-dimethyl-2-(2-((1-methyl-1H-pyrazol-5-yl)amino)pyrimidin-4-yl)-5,6-dihydro-4H-thieno[2,3-c]pyrrol-4-one] it was 500 to 1000 nM.

As usually defined, the IC50 is the concentration that gives 50% inhibition.
